Data as given in BindingDB's records for doi:10.1124/jpet.104.069260 (University of Texas At Austin, 2004).

Target: Sodium-dependent serotonin transporter (Homo sapiens, UniProt P31645)
Sequence (P31645 whole entry): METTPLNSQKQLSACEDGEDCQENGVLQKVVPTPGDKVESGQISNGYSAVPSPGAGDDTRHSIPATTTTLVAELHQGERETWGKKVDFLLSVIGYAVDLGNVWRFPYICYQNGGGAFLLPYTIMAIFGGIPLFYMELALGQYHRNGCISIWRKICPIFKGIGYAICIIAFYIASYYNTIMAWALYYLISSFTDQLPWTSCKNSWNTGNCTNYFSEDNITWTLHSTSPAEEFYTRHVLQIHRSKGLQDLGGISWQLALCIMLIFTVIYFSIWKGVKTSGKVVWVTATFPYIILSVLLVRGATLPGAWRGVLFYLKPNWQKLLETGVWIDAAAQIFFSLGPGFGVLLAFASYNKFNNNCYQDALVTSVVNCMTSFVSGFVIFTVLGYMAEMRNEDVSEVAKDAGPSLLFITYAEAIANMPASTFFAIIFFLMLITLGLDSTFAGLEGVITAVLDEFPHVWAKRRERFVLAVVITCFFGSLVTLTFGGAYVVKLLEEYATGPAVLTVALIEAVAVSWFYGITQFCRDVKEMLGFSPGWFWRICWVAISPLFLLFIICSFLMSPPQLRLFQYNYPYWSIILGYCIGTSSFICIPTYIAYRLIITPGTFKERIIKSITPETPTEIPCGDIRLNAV

Compound: CC(N)Cc1ccc2c(c1)OCO2 (configuration not stated)
- Ki: > 10 µM

Compound: CN[C@@H](C)Cc1ccc2c(c1)OCO2 [DL-(3,4-Methylenedioxy)methamphetamine]
- Ki: > 10 µM
